The source of these data is the Deep4Chem optical property database.

A short description of the data set: solvent given as SMILES.

SMILES strings stand for the structures.

Turning to `CCCCCCCCCCCCCCCCCC(=O)Oc1cc2[nH]c(cc2CCOC)c2nc(ccc3[nH]c(cc3CCOC)c3nc1C(CCOC)=C3)C(CCOC)=C2`, for the setting “in Cc1ccccc1”, the absorption maximum amounted to 646 nm.

In the case of `Cc1cc2c(ccc3c(C)[n+](C)c(C)cc32)c(C)[n+]1C`, under “in CC#N”, the absorption maximum turned out to be 406 nm.

Compound `CC1(C)C2=[N+](CCCCCC(=O)NCNC(=O)CCCCCN3/C(=C/C=C/C=C/C=C/2)C(C)(C)c2cc(S(=O)(=O)[O-])ccc23)c2ccc(S(=O)(=O)[O-])cc21` registered an absorption maximum (in CO) of 754 nm.

The compound `COC(=O)/C=C/c1sc(-c2ccc(N(C)C)s2)c(-c2ccsc2)c1N` came in with an absorption maximum (in CC#N) of 472 nm.

`Cc1ccccc1` gave an absorption maximum (in C1CCCCC1) of 256.48 nm.

In the case of `Cn1c(=O)c(/N=N/c2ccc(S(=O)(=O)O)c3ccccc23)c(O)c2ccccc21`, the absorption maximum is 467 nm (in C1CCOC1); 465 nm (in CC(C)=O); 464 nm (in CCOC(C)=O); 468 nm (in CO); 470 nm (in CS(C)=O); 469 nm (in Cc1ccccc1). The absorption maximum runs as follows: (in ClCCl) 467 nm; (in O) 456 nm.

Consider `F[B-]1(F)N2C=CN=CC2=[N+]2[N+]1=Cc1c(-c3ccccc3)cc(-c3ccccc3)n1[B-]2(F)F`, for which, for the setting “in ClCCl”, the absorption maximum came to 528 nm.

Consider `CC[N+]1(CC)CN2C(=N1)C(C(=O)O)=Cc1cc(OC)c(OC)cc12`, for which the absorption maximum (in O) was 392 nm.

Consider `CC(C)(C)c1cc2c3c(c1)c1cc(C(C)(C)C)cc4c1n3B1c3c-2cccc3-c2cc(C(C)(C)C)cc3c5cc(C(C)(C)C)cc-4c5n1c23`, for which, under “in C1CCOC1”, the absorption maximum was 439 nm.

The compound `c1ccc(-c2nc(-c3ccccc3)nc(-c3ccc(-n4c5ccccc5c5cc(-n6c7ccccc7c7ccccc76)ccc54)cc3)n2)cc1` yielded an absorption maximum (in Cc1ccccc1) of 367 nm.

Regarding `CCn1c(=O)nc2n(C)c3cc(C)ccc3nc-2c1=O`, the absorption maximum was determined as 443 nm (in C1COCCO1), 445 nm (in CC#N), 446 nm (in CO) and 448 nm (in ClCCCl).

In the case of `CC1=NN(c2ccccc2)C(=O)/C1=C\c1cn(-c2ccccc2)nc1-c1ccc([N+](=O)[O-])cc1`, the absorption maximum worked out at 343 nm (in C1CCOC1); 361 nm (in C1COCCO1); 362 nm (in CCO); 359 nm (in CCOC(C)=O); 361 nm (in CN(C)C=O); 360 nm (in CO). The absorption maximum amounted to 364 nm (in CS(C)=O), 364 nm (in Cc1ccccc1) and 363 nm (in ClC(Cl)Cl).

For the compound `O=P1(c2ccccc2)C2=C(c3ccccc31)[Si](c1ccccc1)(c1ccccc1)c1cc(N(c3ccccc3)c3ccccc3)ccc12` (centres undefined), the absorption maximum is recorded as 456 nm (in CC#N), 466 nm (in CO) and 459 nm (in Cc1ccccc1).

In turn, `COc1cc2c(cc1F)c(=O)c1cc(F)c(OC)cc1n2Cc1ccccc1` gave an absorption maximum (in CCO) of 381 nm.

As for `CC(=O)c1c(N[C@@H](CS)C(=O)O)c2ccc(N(C)C)cc2oc1=O`, the absorption maximum (in ClCCl) was found to be 372 nm.

In the case of `CCOC(=O)CCOc1ccc(C(c2c(C)[nH]c3ccccc23)c2c(C)[nH]c3ccccc23)cc1`, the absorption maximum (in C1CCCCC1) was found to be 290 nm.

Regarding `N#Cc1cccc2[nH]ccc12`, the absorption maximum (in C1COCCO1) was 304.29 nm, the absorption maximum (in CC#N) is 302.81 nm and the absorption maximum (in O) turned out to be 305 nm.

For `CC(C)[Si](C#Cc1ccc(C#C[Si](C(C)C)(C(C)C)C(C)C)c2nc3c(nc12)Cc1ccccc1-3)(C(C)C)C(C)C`, for the setting “in CCCCCC”, the absorption maximum is recorded as 369 nm.

Take `CCN(CC)c1ccc2c(-c3ccccc3C(=O)O)c3c([o+]c2c1)/C(=C/c1ccc(N(C)C)cc1)CCC3`: the absorption maximum (in ClCCl) came to 689 nm.

Turning to `CCCCC(CC)COc1ccc2nc(-c3ccc(-c4c(C)noc4C)s3)sc2c1` (centres undefined), the absorption maximum (in ClCCl) is on record as 359 nm.

With `COc1c(Br)c2cc(=O)oc3ccc4cccc1c4c32`, the absorption maximum (in CC1CCCO1) is 475 nm.

For the compound `CCCCCCCCN1C(=O)c2ccc3c4c(-c5ccc(-n6c7ccccc7c7ccccc76)cc5)cc5c6c(cc(-c7ccc(-n8c9ccccc9c9ccccc98)cc7)c(c7ccc(c2c37)C1=O)c64)C(=O)N(CCCCCCCC)C5=O`, the absorption maximum (in ClC(Cl)Cl) worked out at 551 nm.

Take `CC(=O)c1ccc(/C=C/C=C/C2=NC3C(=O)NC(N)=NC3N2[C@H]2C[C@H](O)[C@@H](CO)O2)cc1` (some centres undefined): the absorption maximum turned out to be 392 nm (in CC#N) and 388 nm (in CO).

On to `Cc1cc(O)c(C(=O)/C=C/c2ccccc2)c(=O)o1`, for which the absorption maximum reads like this: (in CC#N) 356 nm; (in ClCCl) 358 nm.

With `CCCC1(CCC)c2cc(-c3ccc(C(C)(C)CC)cc3)ccc2-c2ccc(-c3ccc(C(C)(C)CC)cc3)cc21`, the absorption maximum (in C1CCCCC1) was 328 nm.

On to `CCn1c2ccccc2c2c(C#N)c3c(ccc4c3cnn4C)nc21`, for which, for the setting “in CCOC(C)=O”, the absorption maximum stood at 383 nm.

The compound `COCCOCCOCCOCC(COCCOCCOCCOC)Oc1cc(/C=C/c2ccc(/C=C(\C#N)c3ccc(C(F)(F)F)cc3)cc2)c(OC(COCCOCCOCCOC)COCCOCCOCCOC)cc1/C=C/c1ccc(/C=C(\C#N)c2ccc(C(F)(F)F)cc2)cc1` displayed an absorption maximum (in ClCCl) of 439 nm.

Turning to `O=P1(c2ccccc2)c2ccc(N3c4ccccc4Oc4ccccc43)cc2-c2cc(N3c4ccccc4Oc4ccccc43)ccc21`, the absorption maximum reads like this: (in Cc1ccccc1) 405 nm; (in c1ccc2c(c1)c1ccccc1n2-c1ccc(-c2ccc(-n3c4ccccc4c4ccccc43)cc2)cc1) 404.2 nm.

On to `F[B-]1(F)n2cccc2C(c2c3ccccc3cc3ccccc23)=C2C=CC=[N+]21`, for which the absorption maximum runs as follows: (in CC#N) 502 nm; (in CCCCCC) 505 nm; (in CCO) 503 nm; (in CN(C)C=O) 506 nm; (in Cc1ccccc1) 508 nm; (in ClCCl) 506 nm.

As to `CCc1c(C)c2n(c1C)[B-](F)(F)[N+]1=C(C=C3c4ccccc4-c4ccccc43)C=CC1=C2C`, the absorption maximum (in C1CCCCC1) stood at 589 nm.

As to `c1ccc(-c2nc(-c3ccccc3)nc(-c3ccc(-n4c5ccccc5c5c6c(ccc54)-c4ccccc4C6(c4ccccc4)c4ccccc4)cc3)n2)cc1`, the absorption maximum (in Cc1ccccc1) is 372 nm.

Where the note is “in CC#N”, `Cc1ccc(-c2ccc(/C=C/c3ccc([N+](=O)[O-])cc3)cn2)nc1` returned an absorption maximum of 349 nm.

For the setting “in CO”, `O=C1C=C(Nc2ccccc2[N+](=O)[O-])C(=O)c2ccccc21` registered an absorption maximum of 450 nm.

As for `COc1ccc2cc(-c3cc(-c4ccccc4)c4n3[B-](F)(F)[N+]3=C5C=NC=CN5[B-](F)(F)[N+]3=C4)ccc2c1`, where the note is “in ClCCl”, the absorption maximum turned out to be 536 nm.

Turning to `C(#Cc1ccncc1)C(C#Cc1ccncc1)=Cc1ccc(C=C(C#Cc2ccncc2)C#Cc2ccncc2)cc1`, the absorption maximum (in ClC(Cl)Cl) was determined as 420 nm.

On to `CCN(CC)c1ccc(Nc2cc3oc(-c4ccc(C#N)cc4)nc3c3ccccc23)cc1`, for which the absorption maximum is, setting by setting: (in C1COCCO1) 420 nm; (in CC(C)=O) 420 nm; (in ClCCl) 420 nm; (in c1ccccc1) 420 nm.

`N#C/C(=C\c1ccc(C#N)cc1)c1nc(-c2ccccc2)c(-c2ccccc2)s1` came in with an absorption maximum (in CC#N) of 379 nm.

`c1ccc(N(c2ccccc2)c2ccc(-n3ccc4cc(-c5ccc(C6(c7ccccc7)c7ccccc7-c7ccccc76)cc5)ccc43)cc2)cc1` gave an absorption maximum (in ClCCl) of 308 nm.

Take `CC(C)=N[O-]`: the absorption maximum (in CCO) is listed as 265 nm.

The compound `COC(=O)COc1ccc(/C=C/C2=[N+]3C(=C(c4ccc(N(C)C)cc4)c4c(C)cc(C)n4[B-]3(F)F)C(C)=C2)cc1` registered an absorption maximum (in CO) of 566 nm.

For the compound `COc1ccc(C2=C(c3ccc(C)cc3)C(c3ccccc3)=[N+]3C2=Nc2c(-c4ccc(OC)cc4)c(-c4ccc(C)cc4)c(-c4ccccc4)n2[B-]3(F)F)cc1`, the absorption maximum (in Cc1ccccc1) is reported as 656 nm.

Compound `CCCCC(CC)Cn1c2cc(-c3ccc(N(c4ccccc4)c4ccccc4)cc3)c(C#N)cc2c2cc(C#N)c(-c3ccc(N(c4ccccc4)c4ccccc4)cc3)cc21` (centres undefined) registered an absorption maximum (in ClCCl) of 369 nm.

`O=c1oc2ccc3ccccc3c2nc1-c1ccc(Cl)cc1` showed an absorption maximum (in c1ccccc1) of 404 nm.

Under “in ClC(Cl)Cl”, `Fc1ccc(C2=NC(c3ccccc3)C(N(c3ccccc3)c3ccccc3)S2)cc1` (centres undefined) yielded an absorption maximum of 363 nm.

`COC(=O)/C(C#N)=c1\s/c(=c2/s/c(=C(/C#N)C(=O)OC)c3cc(-c4ccccc4)sc23)c2sc(-c3ccccc3)cc12` showed an absorption maximum (in Cc1ccccc1) of 605 nm.

The compound `Cc1ccc(-c2cccc3ncc(-c4ccccc4)n23)cc1` came in with an absorption maximum (in ClCCl) of 341 nm.

For the setting “in C1CCOC1”, `C1=C(c2ccccc2)C=C(c2ccccc2)/C1=C/c1ccc2c(c1)Cc1ccccc1-2` registered an absorption maximum of 384 nm.

In the case of `Cc1cc(=O)oc2cc3c4ccccc4c4ccccc4c3cc12`, the absorption maximum is, setting by setting: (in C1CCOC1) 378 nm; (in CC#N) 375 nm; (in CO) 377 nm; (in CS(C)=O) 378 nm; (in Cc1ccccc1) 381 nm; (in ClC(Cl)Cl) 362 nm.

Under “in Cc1ccccc1”, `CC1(C)c2ccccc2N(c2ccc(-c3cc(-c4ccccc4)nc(-c4ccccc4)n3)cc2)c2ccccc21` came in with an absorption maximum of 374.95 nm.

In the case of `Oc1ccc2ccccc2c1/C=N/C1CCCCC1/N=C/c1c(O)ccc2ccccc12` (centres undefined), for the setting “in CC#N”, the absorption maximum amounted to 397 nm.

For `CC[N+]1(CC)CN2C(=N1)C(C(=O)O)=Cc1cc(Cl)ccc12`, the absorption maximum (in O) stood at 377 nm.

The compound `O=C1OC(c2ccccc2)=N/C1=C\c1ccccc1` had an absorption maximum (in C1COCCO1) of 363 nm.

For the compound `CC(C)(C)C1CCC(=CS/C=C/c2ccc(-c3ccc(/C=C/SC=C4CCC(C(C)(C)C)CC4)cc3)cc2)CC1` (centres undefined), the absorption maximum (in ClCCl) is given as 350 nm.

As for `N#Cc1cc(-n2c3ccccc3c3cc(Br)ccc32)c(-n2c3ccccc3c3cc(Br)ccc32)cc1C#N`, the absorption maximum (in C1CCOC1) came out at 366 nm.

As for `[O-][n+]1c(-c2ccccc2)cc(N2CCOCC2)nc1/C=C/c1ccccc1`, for the setting “in ClCCl”, the absorption maximum came to 445 nm.

`c1ccc(-c2nc(-c3ccccc3)nc(-c3ccc(-n4c5ccccc5c5cc6c(cc54)C4c5ccccc5C6c5ccccc54)cc3)n2)cc1`: for the setting “in Cc1ccccc1”, the absorption maximum was determined as 373 nm.
